Results published in patent US20240315993A1, “ANTIPARASITIC COMPOUNDS” (Intervet Inc., priority 2021, published 2024).

Assays:
[1] = test system: Mobile stages of sea lice (pre-adults, adults of Lepeophtheirus salmonis); assay: Adult sea lice contact assay; details: pre-adults/adults, assessed after ~1 and 24 h, read-out: EC50 (sea lice inhibition, dead+damaged)
Method: Mobile stages of sea lice (i.e., pre-adults, adults of Lepeophtheirus salmonis) were exposed to seawater spiked with declining concentrations of a test compound (dissolved in a PEG sea-water mixture). Sea lice inhibition (% of dead+damaged sea lice) was assessed after approximately 1 and 24 hours of continuous exposure in comparison to a negative (solvent) control group.

[2] = test system: Rhipicephalus appendiculatus; assay: Cattle - efficacy against multi-host ticks (Rhipicephalus appendiculatus); format: in vivo
Method: (§1) Cattle were treated subcutaneously or topically (pour-on) at a dose of 5 mg/kg bodyweight of a test compound (Day 0). As subcutaneous formulation NMP 60%/PEG300 40% was used, and as pour-on formulation DMA 92%/DEET 8% was used. Cattle of the negative control group received only the formulation excipients of both formulations (SC, pour-on).
(§2) Cattle were locally infested with 30 to 40 unfed adult ticks each of Rhipicephalus appendiculatus and Dermacenter variabilis (for both species sex ratio 1:1), by placing the ticks in an ear sleeve (R. appendiculatus) or a stockinet patch attached to the body side (D. variabilis) once before treatment, and at different time points after treatment. Free (i.e., non-attached ticks) were removed from ear sleeves/stockinet patches two days after each infestation and were excluded from the efficacy calculation.
(§3) Compounds with efficacy ≥80 percent were found active.

Dermacenter variabilis = assay: Cattle - efficacy against multi-host ticks (Dermacenter variabilis); format: in vivo
Method: as §1, §2, §3

[3] = test system: Copepodids (juvenile sea lice stage of Lepeophtheirus salmonis); assay: Juvenile sea lice contact assay; details: ~24 h
Method: Copepodids (juvenile sea lice stage of Lepeophtheirus salmonis) were exposed to seawater spiked with declining concentrations of a test compound (dissolved in a DMSO sea-water mixture). Sea lice inhibition (% of dead+damaged copepodids) was assessed after approximately 24 hours of continuous exposure. The vitality of used parasites was confirmed in a negative (solvent) control group.

Rhipicephalus microplus = assay: Cattle - efficacy against one-host tick; format: in vivo; details: 1 mg/kg topical (Compound 4: spray solution; others: DMA 92%/DEET 8% pour-on)
Method: Cattle were infested (whole body) with up to 3000 Rhipicephalus microplus larvae two or three times per week before and after the treatment day (Day 0). Cattle of treatment groups were treated subcutaneously or topically (spray or pour-on) at a dose of 1 mg/kg bodyweight of a test compound. As subcutaneous formulation either 2-pyrrolidon 50%/Tween 80 50% or NMP 60%/PEG300 40% was used. As topical formulation either a spray solution (DMF/Emulsifier 2%/tap water 98%) (Compound 4) or a DMA 92%/DEET 8% pour-on solution (all other compounds) or a pour-on solution containing Imwitor 988 (20%)+Miglyol 840 (QS) (Compound 453 and Compound 466) or a pour-on solution containing Miglyol 840 (QS) (Compound 453) was used. Cattle of the negative control group received only the formulation excipients of the respective administration route.
Fully engorged female ticks dropping from cattle were collected daily after treatment and counted in treatment and control groups. Efficacy was expressed using the standard ADEQ analysis method (ADEQ calculation in accordance with WAAVP guidelines for evaluating the efficacy of acaricides against ticks on ruminants; Veterinary parasitology 136 (2006) 29-43). Compounds with efficacy ≥80 percent were found active/effective. Onset of efficacy means the first Day with efficacy ≥80 percent. Duration of efficacy means the last Day with efficacy ≥80 percent.

[4] = test system: juvenile soft ticks (Ornithodoros moubata); assay: Guinea pig - efficacy against argaside tick; format: in vivo; details: for duration of efficacy, subcutaneous compared with oral administration: 5 mg/kg, ticks and bed bugs
Method: (§4) Guinea pigs were locally co-infested (using an infestation device on a shaved skin area) with juvenile soft ticks (Ornithodoros moubata) and bed bugs (Cimex lectularius) before the treatment day (Day 0) to provide a baseline-negative control value. Guinea pigs were treated orally (by gavage) or subcutaneously at a dose of 5 mg/kg bodyweight of a test compound in a formulation of 10% DMF/Emulsifier+90% Aqua ad injectabilia.
(§5) Repeated local infestations with both parasites were performed at different time points after treatment. Within approximately 45 min after each infestation ten engorged ticks and ten engorged bed bugs were • collected and the percentage of dead and damaged parasites per species were • assessed approximately 24 hours following collection. The efficacy was • calculated as % of inhibition ‘killed+damaged’ parasites in a treated group in comparison to the baseline-negative control (using a modified Schneider Orelli's formula).
(§6) Results: Activity of the test compounds at different evaluation time-points (≥80% inhibition were found active): […]

[5] = test system: bed bugs (Cimex lectularius); assay: Guinea pig - efficacy against bed bug; format: in vivo
Method: as §4, §5, §6

Lepeophtheirus salmonis = assay: Salmon - in vivo efficacy against sea lice using gavage administration; details: 5 mg/kg once by gavage
Method: Salmon (Salmo solar) were treated once orally by gavage at a dose of 5 mg/kg bodyweight per fish (Day 0). As formulation DMSO 5%/fish oil 95% was used. Salmon of the negative control group received only the excipients of the formulation.
The fish were infested with Lepeophtheirus salmonis copepodids twice before treatment (i.e., around day −28 and day −3) and once after treatment (i.e., day 17).
Around day 28 (end of animal phase), fish were euthanized, and lice on each fish were classified ((pre-)adult or juvenile stage) and counted. […] Efficacy is expressed as a % reduction of sea lice in treated groups versus a control group, using the Abbott's formula.

[6] = 5 mg/kg subcutaneous, therapeutic, Day 2
[7] = 5 mg/kg topical pour-on, re-infested after 7 days
[8] = 5 mg/kg topical pour-on, re-infested after 28 days
[9] = 5 mg/kg topical pour-on, therapeutic, Day 2
[10] = 5 mg/kg, both administration routes (topical, subcutaneous)
[11] = 5 mg/kg subcutaneous, after 7 days
[12] = 5 mg/kg subcutaneous, after 10 days

SMILES: O=C(Nc1ccc(F)cc1F)c1cc(NC(=O)[C@H]2[C@H](c3cc(Cl)cc(Cl)c3)C2(Cl)Cl)ccc1F [Compound 447]
- EC50 [1]: ≤ 10 nM
- efficacy ≥80 percent against Rhipicephalus appendiculatus ([2]; 5 mg/kg subcutaneous, re-infested after 21 days): prophylactic efficacy
- efficacy ≥80 percent against Rhipicephalus appendiculatus [2, 6]: therapeutic efficacy
- efficacy ≥80 percent against Rhipicephalus appendiculatus [2, 7]: prophylactic efficacy
- efficacy ≥80 percent against Rhipicephalus appendiculatus ([2]; 5 mg/kg topical pour-on, re-infested after 14 days): prophylactic efficacy
- efficacy ≥80 percent against Rhipicephalus appendiculatus [2, 8]: prophylactic efficacy
- efficacy ≥80 percent against Rhipicephalus appendiculatus ([2]; 5 mg/kg topical pour-on, re-infested after 35 days): prophylactic efficacy
- efficacy ≥80 percent against Rhipicephalus appendiculatus [2, 9]: therapeutic efficacy
- effective in treating existing tick infestations [2, 10]: 100%
- efficacy ≥80 percent against Dermacenter variabilis (Dermacenter variabilis; 5 mg/kg subcutaneous, re-infested after 7 days): prophylactic efficacy
- efficacy ≥80 percent against Dermacenter variabilis (Dermacenter variabilis; 5 mg/kg subcutaneous, re-infested after 28 days): prophylactic efficacy
- efficacy ≥80 percent against Dermacenter variabilis (Dermacenter variabilis; [6]): therapeutic efficacy
- efficacy ≥80 percent against Dermacenter variabilis (Dermacenter variabilis; [7]): prophylactic efficacy
- efficacy ≥80 percent against Dermacenter variabilis (Dermacenter variabilis; [8]): prophylactic efficacy
- efficacy ≥80 percent against Dermacenter variabilis (Dermacenter variabilis; [9]): therapeutic efficacy
- effective in treating existing tick infestations (Dermacenter variabilis; [10]): 100%
- inhibition at 0.01 µM ([3]; Lepeophtheirus salmonis, 10 nM in seawater, read-out: Sea lice inhibition (% of dead+damaged copepodids)): 100%
- duration of efficacy (last Day with efficacy ≥80 percent) (Rhipicephalus microplus): ≥ 57 days
- onset of efficacy (first Day with efficacy ≥80 percent) (Rhipicephalus microplus): 4 days
- activity against tick nymphs (≥80% inhibition, killed+damaged) ([4]; 5 mg/kg oral, Day 0): immediate activity
- activity against tick nymphs (≥80% inhibition, killed+damaged) ([4]; 5 mg/kg oral, after 7 days): activity
- activity against tick nymphs (≥80% inhibition, killed+damaged) ([4]; 5 mg/kg subcutaneous, Day 0): immediate activity
- activity against tick nymphs (≥80% inhibition, killed+damaged) [4, 11]: activity
- activity against tick nymphs (≥80% inhibition, killed+damaged) [4, 12]: activity
- activity against tick nymphs (≥80% inhibition, killed+damaged) ([4]; 5 mg/kg subcutaneous, after 14 days): activity
- activity against tick nymphs (≥80% inhibition, killed+damaged) ([4]; 5 mg/kg subcutaneous, after 17 days): activity
- duration of efficacy, subcutaneous compared with oral administration [4]: longer duration of efficacy
- activity against bed bugs (≥80% inhibition, killed+damaged) ([5]; 5 mg/kg oral, Day 0): immediate activity
- activity against bed bugs (≥80% inhibition, killed+damaged) ([5]; 5 mg/kg oral, after 7 days): activity
- activity against bed bugs (≥80% inhibition, killed+damaged) ([5]; 5 mg/kg subcutaneous, Day 0): immediate activity
- activity against bed bugs (≥80% inhibition, killed+damaged) [5, 11]: activity
- activity against bed bugs (≥80% inhibition, killed+damaged) [5, 12]: activity

SMILES: Cc1cc(NC(=O)c2cc(NC(=O)[C@H]3[C@H](c4cc(Cl)cc(Cl)c4)C3(Cl)Cl)ccc2Cl)ncc1F [Compound 454]
- EC50 [1]: ≤ 10 nM
- inhibition at 0.1 µM ([3]; Lepeophtheirus salmonis, 100 nM in seawater, read-out: Sea lice inhibition (% of dead+damaged copepodids)): 100%
- activity against tick nymphs (≥80% inhibition, killed+damaged) ([4]; 5 mg/kg oral, Day 0): immediate activity
- activity against tick nymphs (≥80% inhibition, killed+damaged) ([4]; 5 mg/kg subcutaneous, Day 0): immediate activity
- activity against tick nymphs (≥80% inhibition, killed+damaged) [4, 11]: activity
- activity against tick nymphs (≥80% inhibition, killed+damaged) [4, 12]: activity
- duration of efficacy, subcutaneous compared with oral administration [4]: longer duration of efficacy
- activity against bed bugs (≥80% inhibition, killed+damaged) ([5]; 5 mg/kg oral, Day 0): immediate activity
- activity against bed bugs (≥80% inhibition, killed+damaged) ([5]; 5 mg/kg subcutaneous, Day 0): immediate activity

SMILES: O=C(Nc1ncc(F)cc1F)c1cc(NC(=O)C2C(c3cc(Cl)cc(Cl)c3)C2(Cl)Cl)ccc1F (centres unmarked) [Compound 463]
- Sea lice inhibition (% of dead+damaged copepodids) ([3]; 1 nM in seawater): 100%
- therapeutic efficacy against juvenile sea lice (% reduction vs control) (Lepeophtheirus salmonis; day -3 infestation, counted around day 28): 100%
- therapeutic efficacy against (pre-)adult sea lice (% reduction vs control) (Lepeophtheirus salmonis; day -28 infestation, counted day 7): 100%
